Laboratory results: BindingDB's records for patent WO2025045746 (695 Avenue de la Résistance, 2025)

Each compound was assayed against T1, NAD(+) hydrolase SARM1 [28-724] (UniProt Q6SZW1) (assay: SARM1 Inhibitory Activity).
T1 construct: 28-724
T1 sequence (Q6SZW1 whole entry): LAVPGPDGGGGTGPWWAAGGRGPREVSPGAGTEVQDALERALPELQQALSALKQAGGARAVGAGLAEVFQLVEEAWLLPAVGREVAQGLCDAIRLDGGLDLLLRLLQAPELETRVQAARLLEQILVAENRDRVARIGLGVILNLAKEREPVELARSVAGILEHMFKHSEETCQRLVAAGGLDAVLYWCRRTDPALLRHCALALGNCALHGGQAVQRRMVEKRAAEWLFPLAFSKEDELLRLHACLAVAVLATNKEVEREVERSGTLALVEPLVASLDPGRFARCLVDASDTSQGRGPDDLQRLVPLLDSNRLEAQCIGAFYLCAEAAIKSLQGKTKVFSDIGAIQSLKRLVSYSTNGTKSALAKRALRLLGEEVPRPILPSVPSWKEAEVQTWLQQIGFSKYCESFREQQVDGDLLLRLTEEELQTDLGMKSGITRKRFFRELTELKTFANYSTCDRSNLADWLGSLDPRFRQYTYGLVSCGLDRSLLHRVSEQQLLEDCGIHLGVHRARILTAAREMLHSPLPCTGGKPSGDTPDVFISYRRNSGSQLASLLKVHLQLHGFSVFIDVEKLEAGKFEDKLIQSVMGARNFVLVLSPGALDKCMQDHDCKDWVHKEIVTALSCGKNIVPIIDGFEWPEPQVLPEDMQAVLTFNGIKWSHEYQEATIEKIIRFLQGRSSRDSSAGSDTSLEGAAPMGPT
Procedure: Assay reagents were prepared in 25mM HEPES pH 7.2, 50mM NaCl, 1mM EDTA and 0.0025% Tween20. […] The peak area of NAD and linear ADPR were measured by a RapidFire High Throughput Mass Spectrometry System (Agilent Technologies, Santa Clara, CA) using an API5000 triple quadrupole mass spectrometer (AB Sciex Framingham, MA). The ratio of linear ADPR to NAD peak area was then plotted against compound concentration to obtain an IC50 as fitted via non-linear regression.

SMILES	IC50
O=C(c1cc(-c2ccncc2)n[nH]1)N1CCC2(CCc3cc(Br)ccc32)C1 (stereo unspecified) [WO2025045746, Example 3]	3190 nM
O=C(c1[nH]nc(-c2ccnnc2)c1Cl)N1CCC(c2ccc(F)c(F)c2)C1 (stereo unspecified) [WO2025045746, Example 47]	142 nM
O=C(c1[nH]nc(-c2ccnnc2)c1Cl)N1CC[C@H](c2ccc(F)c(F)c2)C1 [WO2025045746, Example 50]	68 nM
O=C(c1cc(-c2ccnnc2)n[nH]1)N1C[C@@H](F)[C@H](c2ccc(Cl)cc2)C1 [WO2025045746, Example 75]	506 nM
Cc1c(-c2ccnnc2)n[nH]c1C(=O)N1CCC(c2ccc(Cl)cc2)C1 (stereo unspecified) [WO2025045746, Example 5]	427 nM
Cc1ccc(C2CCN(C(=O)c3cc(-c4ccnnc4)n[nH]3)C2)s1 (stereo unspecified) [WO2025045746, Example 45]	1540 nM
Cc1sc(C2CCN(C(=O)c3cc(-c4ccnnc4)n[nH]3)C2)cc1Br (stereo unspecified) [WO2025045746, Example 55]	2170 nM
C[C@@H]1CN(C(=O)c2cc(-c3ccnnc3)n[nH]2)C[C@H]1c1ccc(Br)cc1 [WO2025045746, Example 52]	1360 nM
N#C[C@H]1CN(C(=O)c2cc(-c3ccnnc3)n[nH]2)C[C@@H]1c1ccc(Cl)cc1 [WO2025045746, Example 73]	30 nM
C[C@@H](O)[C@@H]1CN(C(=O)c2cc(-c3ccnnc3)n[nH]2)C[C@H]1c1ccc(Cl)cc1 [WO2025045746, Example 68]	196 nM
CC1CC(c2ccc(Cl)cc2)CN1C(=O)c1cc(-c2ccnnc2)n[nH]1 (stereo unspecified) [WO2025045746, Example 43]	8690 nM
O=C(c1[nH]nc(-c2ccnnc2)c1Br)N1CC[C@@H](c2ccc(Cl)cc2)C1 [WO2025045746, Example 59]	1780 nM
O=C(c1cc(-c2ccnnc2)n[nH]1)N1C[C@H](CO)[C@@H](c2ccc(Cl)cc2)C1 [WO2025045746, Example 61]	1240 nM
N#C[C@@H]1CN(C(=O)c2cc(-c3ccnnc3)n[nH]2)C[C@H]1c1ccc(Cl)cc1 [WO2025045746, Example 72]	563 nM
O=C(c1cc(-c2ccnnc2)n[nH]1)N1C[C@H](O)[C@H](c2ccc(Cl)cc2)C1 [WO2025045746, Example 22]	9220 nM
O=C(c1cc(-c2ccnnc2)n[nH]1)N1C[C@@H](CO)[C@H](c2ccc(Cl)cc2)C1 [WO2025045746, Example 60]	72 nM
O=C(c1[nH]nc(-c2ccnnc2)c1Cl)N1CC[C@@H](c2ccc(F)c(F)c2)C1 [WO2025045746, Example 49]	379 nM
CC1CC(c2ccccc2)C(C)N1C(=O)c1cc(-c2ccnnc2)n[nH]1 (stereo unspecified) [WO2025045746, Example 24]	9480 nM
O=C(c1cc(-c2ccnnc2)n[nH]1)N1C[C@@H](O)[C@H](c2ccc(Cl)cc2)C1 [WO2025045746, Example 21]	351 nM
O=C(c1[nH]nc(-c2ccnnc2)c1F)N1CC[C@@H](c2ccc(Cl)cc2)C1 [WO2025045746, Example 64]	492 nM
O=C(c1cc(-c2ccnnc2)n[nH]1)N1C[C@H](c2ccc(Cl)cc2)[C@@H](F)C1 [WO2025045746, Example 76]	4500 nM
N#Cc1ccc(C2CCN(C(=O)c3cc(-c4ccnnc4)n[nH]3)C2)s1 (stereo unspecified) [WO2025045746, Example 40]	746 nM
O=C(c1[nH]nc(-c2ccnnc2)c1F)N1CC[C@H](c2ccc(Cl)cc2)C1 [WO2025045746, Example 63]	95 nM
C[C@H]1CN(C(=O)c2cc(-c3ccnnc3)n[nH]2)C[C@@H]1c1ccc(Br)cc1 [WO2025045746, Example 53]	84 nM
O=C(c1cc(-c2ccnnc2)n[nH]1)N1CCC(F)(c2cc(F)cc(F)c2)C1 (stereo unspecified) [WO2025045746, Example 15]	3740 nM
O=C(c1cc(-c2ccnnc2)n[nH]1)N1C[C@H](O)[C@H](c2ccc(Cl)cc2)C1 [WO2025045746, Example 34]	5920 nM
O=C(c1cc(-c2ccnnc2)n[nH]1)N1C[C@H](c2ccc(Cl)cc2)[C@@H](O)C1 [WO2025045746, Example 31]	761 nM
Cc1csc(C2CCN(C(=O)c3cc(-c4ccnnc4)n[nH]3)C2)c1 (stereo unspecified) [WO2025045746, Example 48]	7410 nM

Now from value to compound:

IC50	SMILES
2830 nM	O=C(c1cc(-c2ccncc2)n[nH]1)N1CC[C@@H](c2ccc(Cl)nc2)C1 [WO2025045746, Example 29]
98 nM	O=C(c1cc(-c2ccnnc2)n[nH]1)N1CCC(c2ccc(Cl)s2)C1 (stereo unspecified) [WO2025045746, Example 10]
1780 nM	O=C(c1cc(-c2ccnnc2)n[nH]1)N1CCC(c2cnc(Cl)s2)C1 (stereo unspecified) [WO2025045746, Example 37]
500 nM	Cc1cnccc1-c1cc(C(=O)N2CC[C@@H](c3ccc(Cl)cc3)C2)[nH]n1 [WO2025045746, Example 56]
2170 nM	N#Cc1ccc(C2CCN(C(=O)c3cc(-c4ccnnc4)n[nH]3)C2)cc1 (stereo unspecified) [WO2025045746, Example 16]
194 nM	O=C(c1cc(-c2ccncc2)n[nH]1)N1CC[C@H](c2ccc(Cl)cc2)C1 [WO2025045746, Example 26]
4510 nM	O=C(c1cc(-c2ccncc2)n[nH]1)N1CCC(c2ccccc2)C1 (stereo unspecified) [WO2025045746, Example 2]
9660 nM	O=C(c1cc(-c2ccnnc2)n[nH]1)N1CCC(c2ccc(Cl)cn2)C1 (stereo unspecified) [WO2025045746, Example 20]
461 nM	O=C(c1cc(-c2ccnnc2)n[nH]1)N1CCC(c2ccc(Br)cc2)C1 (stereo unspecified) [WO2025045746, Example 51]
105 nM	O=C(c1cc(-c2ccnnc2)n[nH]1)N1CCC(c2ccc(F)c(F)c2)C1 (stereo unspecified) [WO2025045746, Example 17]
73 nM	O=C(c1cc(-c2ccnnc2)n[nH]1)N1CCC(c2ccc(Cl)c(F)c2)C1 (stereo unspecified) [WO2025045746, Example 39]
214 nM	O=C(c1cc(-c2ccnnc2)n[nH]1)N1CC[C@H](c2cc(Cl)cs2)C1 [WO2025045746, Example 70]
682 nM	O=C(c1cc(-c2ccncc2)n[nH]1)N1CC[C@H](c2ccc(Cl)nc2)C1 [WO2025045746, Example 28]
3040 nM	O=C(c1cc(-c2ccncc2)n[nH]1)N1CCC(c2ccccc2Cl)C1 (stereo unspecified) [WO2025045746, Example 6]
1280 nM	O=C(c1cc(-c2ccncc2)n[nH]1)N1CCC(c2cccc(Cl)c2)C1 (stereo unspecified) [WO2025045746, Example 7]
387 nM	O=C(c1cc(-c2ccncc2)n[nH]1)N1CCC(c2ccc(Cl)cc2)C1 (stereo unspecified) [WO2025045746, Example 1]
3050 nM	COc1cnccc1-c1cc(C(=O)N2CCC(c3ccc(Cl)cc3)C2)[nH]n1 (stereo unspecified) [WO2025045746, Example 79]
57 nM	O=C(c1cc(-c2ccnnc2)n[nH]1)N1CC[C@@H](c2ccc(F)c(F)c2)C1 [WO2025045746, Example 41]
183 nM	O=C(c1cc(-c2ccnnc2)n[nH]1)N1CC[C@H](c2ccc(F)c(F)c2)C1 [WO2025045746, Example 42]
625 nM	O=C(c1cc(-c2ccncc2)n[nH]1)N1CC[C@@H](c2ccc(Cl)cc2)C1 [WO2025045746, Example 27]
469 nM	O=C(c1cc(-c2ccnnc2)n[nH]1)N1CCC(c2ccc(Cl)nc2)C1 (stereo unspecified) [WO2025045746, Example 19]
191 nM	O=C(c1cc(-c2ccnnc2)n[nH]1)N1CCC(c2ccc(Cl)cc2)C1 (stereo unspecified) [WO2025045746, Example 4]
8300 nM	O=C(c1cc(-c2ccnnc2)n[nH]1)N1CCC(c2ncc(Cl)s2)C1 (stereo unspecified) [WO2025045746, Example 38]
